From patent publication US9440988B2, “Regulators of the hedgehog pathway, compositions and uses related thereto” (John Hopkins University School of Medicine, priority 1008, dated 2016)

System: Sonic hedgehog signaling
Assay: Clonal NIH-3T3 line with stably integrated Shh-responsive luciferase reporter (Shh-LIGHT/Shh-LIGHT2), inhibition of Sonic hedgehog induction
Format: cell-based, mouse
Details: for improvement of inhibitory activity by oxidation of the hydroxyl group to a ketone: versus the corresponding 3-hydroxyl compound (18, 20, 22, 33, 40, 50); for effect of N-alkyl modification on ability to block Shh signaling / effect of addition on inhibitory activity: SAR statement, relative to cyclopamine
Source text: FIG. 2 relates to a sensitive assay for Shh signaling in NIH-3T3 cells. (A) Purification of cholesterol- and palmitate-modified mouse Sonic hedgehog signaling domain ShhNp. Detergent-insoluble proteolipid complexes were isolated from 293 cells expressing full-length Shh (M. K. Cooper, J. A. Porter, K. E. Young, P. A. Beachy, Science 280, 1603 (1998)), and ShhNp was purified to apparent homogeneity by immunoaffinity chromatography. […] We therefore used the detergent insolubility of cholesterol-modified ShhN and affinity chromatography to purify the processed ShhN protein (ShhNp) from a human 293 cell line engineered to express the full length mouse Shh construct. Detergent-insoluble complexes (DIGs) were isolated as described by Brown and Rose (1992), with the following modifications. Cells from a 150 mm dish were lysed and collected in 2 mL of lysis solution (10 mM NaHPO4, pH 6.5, 150 mM NaCl, 0.5 mM PMSF, 1% Triton X-100, 2 μg/ml Pepstatin A, 10 μg/ml leupeptin, 5 μg/ml aprotinin, 2 μg/ml E64) at 4° C. […] Low-density, flocculent material was collected (from original position of 18.125% step), diluted 5-fold in 10 mM NaHPO4, pH 6.5, 150 mM NaCl and harvested by centrifugation at 20,000×g for 15 min (all at 4° C.). […] Mass standards migrated as indicated. […] NIH-3T3 cells cotransfected with Gli-luc reporter and TK promoter-driven Renilla luciferase control were treated with the indicated concentrations of ShhNp for 2 days. Confluent cultures of NIH-3T3 cells were plated at 1:6 dilution to 24 or 96-well plates. On the following day, the cells were transfected with renilla luciferase (pRL-TK or pRL-SV40; Clontech) or β-galactosidase transfection control (10% w/w DNA), Gli-Luc reporter (40%) and the constructs indicated (50%) using Fugene 6 (Roche) transfection reagent (250 ng (24 well plate) or 100 ng (96 well plate) DNA/well, 3:1 ratio (v/w) of reagent to DNA). […] Firefly and Renilla luciferase and β-galactosidase activities were assayed from the cell lysates by luminometry using dual luciferase (Promega) and Galacto-Light (Tropix) kits, respectively. Luciferase activities are normalized relative to control; a representative experiment is shown. […] Error bars indicate one standard deviation. […] Cultures of Shh-LIGHT (open boxes) or SmoA1-LIGHT (filled diamonds) cells were plated to 96-well plates in a series of twofold dilutions. The NIH-3T3 cell clone Shh-LIGHT and Shh-LIGHT2 stably incorporating the Gli-luc reporter and TK-renilla vectors were established by cotransfection with a vector encoding G418 resistance (pSV-Neo), followed by selection with G418 and cell cloning. Subsequently, a clonal subline of Shh-LIGHT expressing activated Smo (SmoA1-LIGHT) was established using an expression vector that allows hygromycin selection (pcDNA3.1+ hygro; Invitrogen). […] The Shh-LIGHT cells were treated with 4 nM ShhNp, and Gli-luciferase reporter activity was assayed after 24 h. Fold induction of the reporter (% of maximum is relative to equally dense Shh-LIGHT control culture) and cell densities (% of maximum Renilla luciferase activity) were measured at the end of the experiment. Error bars indicate one standard deviation (quadruplicate wells).
Relative reporter activity is normalized to maximum. […] Error bars in A and B indicate one standard deviation.

[1] = Mus musculus, NIH3T3, concentration for 50% inhibition of Sonic hedgehog induction, Table II
[2] = concentration for 50% inhibition of Sonic hedgehog induction, Table II

## CC1=C2C[C@H]3[C@@H](CC=C4C[C@@H](O)CC[C@@]43C)[C@@H]2CC[C@]12O[C@@H]1C[C@H](C)CN(CCNC(=O)C(CCCCNC(=O)CCCCCNC(=O)CCCC[C@@H]3SC[C@@H]4NC(=O)N[C@@H]43)NC(=O)c3ccc(C(=O)c4ccccc4)cc3)[C@H]1[C@H]2C (stereo partly drawn) [Compound 58, N—(N′—(N″,N′″-(4-Benzoylbenzoyl)(N″″-biotinoylaminocaproyl)lysine)aminoethyl)cyclopamine]
[1]
  IC50: > 10000 nM

## CC1=C2C[C@H]3[C@@H](CCC4=CC(=O)CC[C@@]43C)[C@@H]2CC[C@]12O[C@@H]1C[C@H](C)CN(CCNC(=O)CCCCCNC(=O)CCCCC3SC[C@@H]4NC(=O)N[C@H]34)[C@H]1[C@H]2C (stereo partly drawn) [Compound 41, 3-Enone, N—(N′—(N″-Biotinoylaminocaproyl)aminoethyl)cyclopamine]
  effect of enone formation (C5-C6 olefin migrated to C4-C5) on potency: does not appear to affect compound potency
  improvement of inhibitory activity by oxidation of the hydroxyl group to a ketone: approximately two-fold
[1]
  IC50: > 100 nM

## CC1=C2C[C@H]3[C@@H](CC=C4C[C@@H](O)CC[C@@]43C)[C@@H]2CC[C@]12O[C@@H]1C[C@H](C)CN(CCNC(=O)CCCCCNC(=O)CCCCC3SC[C@@H]4NC(=O)N[C@H]34)[C@H]1[C@H]2C (stereo partly drawn) [Compound 40, N—(N′—(N″-Biotinoyl aminocaproyl)aminoethyl)cyclopamine]
[1]
  IC50: > 100 nM
  effect of N-alkyl modification on ability to block Shh signaling: do not significantly diminish

## N—(N′—(N″-Azidoiodophenylpropionyl aminocaproyl)aminoethyl)cyclopamine [Compound 39]
  effect of N-alkyl modification on ability to block Shh signaling: do not significantly diminish
  effect of addition on inhibitory activity: accentuate inhibitory activity
[2]
  IC50: > 100 nM

## CC(=O)CCC(=O)N[C@@H](Cc1ccc(C(=O)c2ccccc2)cc1)C(=O)NCCN1C[C@@H](C)C[C@H]2O[C@]3(CC[C@@H]4C(=C3C)CC3[C@H]4CC=C4C[C@@H](O)CC[C@@]43C)C(C)[C@@H]21 (stereo partly drawn) [Compound 50, N—(N′—(N″-Levulinoyl(4-benzoylphenylalaminoyl))aminoethyl)cyclopamine]
[1]
  IC50: > 1000 nM
  effect of N-alkyl modification on ability to block Shh signaling: significantly abrogate biological activity

## CC1=C2C[C@H]3[C@@H](CC=C4C[C@@H](O)CC[C@@]43C)[C@@H]2CC[C@]12O[C@@H]1C[C@H](C)CN(CCNC(=O)CCCCCCCCCCCNC(=O)C(F)(F)F)[C@H]1[C@H]2C [Compound 29, N—(N′—(N″-Trifluoroacetyl aminododecanoyl) aminoethyl)cyclopamine]
[1]
  IC50: > 100 nM
  effect of N-alkyl modification on ability to block Shh signaling: do not significantly diminish
  effect of addition on inhibitory activity: accentuate inhibitory activity

## CC1=C2C[C@H]3[C@@H](CC=C4C[C@@H](O)CC[C@@]43C)[C@@H]2CC[C@]12O[C@@H]1C[C@H](C)CN(CCNC(=O)CCCCCNC(=O)CCc3ccccc3)[C@H]1[C@H]2C [Compound 33, N—(N′—(N″-Dihydrocinnamoyl aminocaproyl)aminoethyl)cyclopamine]
  effect of N-alkyl modification on ability to block Shh signaling: do not significantly diminish
  effect of addition on inhibitory activity: accentuate inhibitory activity
[2]
  IC50: > 10 nM

## CC1=C2C[C@H]3[C@@H](CC=C4CC(=O)CC[C@@]43C)[C@@H]2CC[C@]12O[C@@H]1C[C@H](C)CN(CCNC(=O)CCCCCNC(=O)CCc3ccccc3)[C@H]1[C@H]2C [Compound 34, 3-Keto, N—(N′—(N″-dihydrocinnamoylaminocaproyl)aminoethyl)cyclopamine]
  potency relative to cyclopamine: ten-fold greater
  improvement of inhibitory activity by oxidation of the hydroxyl group to a ketone: approximately two-fold
Mus musculus, NIH3T3, concentration for 50% inhibition of Sonic hedgehog induction
  IC50: 30 nM
[1]
  IC50: > 10 nM

## CC1=C2C(=O)[C@H]3[C@@H](CC=C4C[C@@H](OC(=O)NCCNC(=O)CCc5ccccc5)CC[C@@]43C)[C@@H]2CC[C@]12O[C@@H]1C[C@H](C)CN[C@H]1[C@H]2C [Compound 12, 3O-dihydrocinnamoylethylenediaminecarbamoyl jervine]
  IC50 relative to cyclopamine (times higher): ~100 times
  potency relative to cycloposine (3) (times weaker): 10 times
[1]
  IC50: > 10000 nM

## CC1=C2C[C@H]3[C@@H](CC=C4C[C@@H](O)CC[C@@]43C)[C@@H]2CC[C@]12O[C@@H]1C[C@H](C)CN(CCNC(=O)CCc3ccccc3)[C@H]1[C@H]2C [Compound 18, N—(N′-Dihydrocinnamoyl aminoethyl)cyclopamine]
[1]
  IC50: > 100 nM

## CC1=C2C[C@H]3[C@@H](CC=C4CC(=O)CC[C@@]43C)[C@@H]2CC[C@]12O[C@@H]1C[C@H](C)CN(CCNC(=O)c3ccc(C(=O)c4ccccc4)cc3)[C@H]1[C@H]2C [Compound 21, 3-Keto, N—(N′-(4-benzoylbenzoyl)aminoethyl)cyclopamine]
[1]
  IC50: > 10 nM
  improvement of inhibitory activity by oxidation of the hydroxyl group to a ketone: approximately two-fold

## CC(=O)CCC(=O)N[C@@H](Cc1ccc(C(=O)c2ccccc2)cc1)C(=O)NCCN1C[C@@H](C)C[C@H]2O[C@]3(CC[C@@H]4C(=C3C)CC3[C@H]4CC=C4CC(=O)CC[C@@]43C)[C@H](C)[C@@H]21 (stereo partly drawn) [Compound 51, 3-Keto N—(N′—(N″-Levulinoyl(4-benzoylphenylalaminoyl))aminoethyl) cyclopamine]
[1]
  IC50: > 1000 nM
  improvement of inhibitory activity by oxidation of the hydroxyl group to a ketone: approximately two-fold

## N—(N′—(N″,N′″-(4-Benzoylbenzoyl) (N″″-digoxigenin 3-O-methylcarbonyl aminocaproyl)lysine)aminoethyl)cyclopamine [Compound 57]
[2]
  IC50: > 10000 nM

## CC1=C2C[C@H]3[C@@H](CC=C4C[C@@H](OC(=O)NCCNC(=O)CCc5ccccc5)CC[C@@]43C)[C@@H]2CC[C@]12O[C@@H]1C[C@H](C)CN[C@H]1[C@H]2C [Compound 8, 3O-dihydrocinnamoylethylenediaminecarbamoyl cyclopamine]
  IC50 relative to cyclopamine (times higher): ~100 times
  potency relative to cycloposine (3) (times weaker): 10 times

## CC1=CC(C)=[N+]2C1=Cc1ccc(CCC(=O)NCCCCCC(=O)NCCN3C[C@@H](C)C[C@H]4O[C@]5(CC[C@@H]6C(=C5C)C[C@H]5[C@H]6CC=C6C[C@@H](O)CC[C@@]65C)[C@H](C)[C@@H]43)n1[B-]2(F)F [Compound 43, N—(N′—(N″-BODIPY FL aminocaproyl)aminoethyl)cyclopamine]
  effect of N-alkyl modification on ability to block Shh signaling: do not significantly diminish
  effect of addition on inhibitory activity: accentuate inhibitory activity
[2]
  IC50: > 100 nM

## CCC(=O)NCCCCCC(=O)NCCN1C[C@@H](C)C[C@H]2O[C@]3(CC[C@@H]4C(=C3C)C[C@H]3[C@H]4CC=C4C[C@@H](O)CC[C@@]43C)[C@H](C)[C@@H]21 [Compound 42, N—(N′—(N″-Propionyl aminocaproyl)aminoethyl)cyclopamine]
[1]
  IC50: > 100 nM

## CC1=C2C[C@H]3[C@@H](CC=C4CC(=O)CC[C@@]43C)[C@@H]2CC[C@]12O[C@@H]1C[C@H](C)CN(CCNC(=O)CCc3ccccc3)[C@H]1[C@H]2C [Compound 19, 3-Keto, N—(N′-dihydrocinnamoylaminoethyl)cyclopamine]
[1]
  IC50: > 10 nM
  improvement of inhibitory activity by oxidation of the hydroxyl group to a ketone: approximately two-fold

## CCC(=O)NCCN1C[C@@H](C)C[C@H]2O[C@]3(CC[C@@H]4C(=C3C)C[C@H]3[C@H]4CC=C4C[C@@H](O)CC[C@@]43C)[C@H](C)[C@@H]21 [Compound 30, N—(N′-Propionyl aminoethyl)cyclopamine]
[1]
  IC50: > 100 nM
